Experimental data: ChEMBL document CHEMBL3885881, “DrugMatrix”

Assays:
[1] = species: Rattus norvegicus; format: toxicity, organism-based, Sprague-Dawley; conditions: in vivo, ip, 24 h, route intraperitoneal, time 1 day, vehicle .1 % RSA/SALINE
Description: DrugMatrix - Regimen: Single

[2] = species: Rattus norvegicus; test: DrugMatrix - Regimen: Daily Repeat; format: toxicity, organism-based, Sprague-Dawley; design: regimen Daily Repeat, gender Male, age 6-8 weeks; conditions: in vivo, po, route oral GAVAGE, vehicle 100 % WATER; for HEMATOCRIT / HEMOGLOBIN / LEUKOCYTE COUNT / MEAN CORPUSCULAR HEMOGLOBIN / MEAN CORPUSCULAR HEMOGLOBIN CONCENTRATION / MEAN CORPUSCULAR VOLUME: tissue Blood; for ALANINE AMINOTRANSFERASE / ALBUMIN / ALKALINE PHOSPHATASE / ASPARTATE AMINOTRANSFERASE / BLOOD UREA NITROGEN / CARBON DIOXIDE / CHLORIDE / CHOLESTEROL / CREATINE PHOSPHOKINASE / CREATININE / LACTATE DEHYDROGENASE / LIPASE / PHOSPHORUS / TOTAL BILIRUBIN / TOTAL PROTEIN / URIC ACID: tissue Plasma
[3] = 0 mg/kg, vehicle control, tissue Blood, dose level Control
[4] = 0 mg/kg, vehicle control, tissue Plasma, dose level Control
[5] = […], tissue Blood, dose 0.25 mg/Kg, dose level High
[6] = […], tissue Plasma, dose 0.25 mg/Kg, dose level High
[7] = 0 mg/kg, 72 h, dose level Control, time 3 day
[8] = 0 mg/kg, 120 h, dose level Control, time 5 day
[9] = 58 mg/kg, 72 h, dose level Low, time 3 day
[10] = 58 mg/kg, 120 h, dose level Low, time 5 day

TNF-ALPHA, RAT
ABSOLUTE EOSINOPHIL [1, 3]: 109.33 CELLS/uL
ABSOLUTE LYMPHOCYTE [1, 3]: 13180.67 CELLS/uL
ABSOLUTE MONOCYTE [1, 3]: 354 CELLS/uL
ABSOLUTE SEGMENTED NEUTROPHIL [1, 3]: 1756 CELLS/uL
BASOPHIL [1, 3]: 0%
EOSINOPHIL [1, 3]: 0.67%
ERYTHROCYTE COUNT [1, 3]: 5.38 x10E6/uL
HEMOGLOBIN [1, 3]: 12.57 G/DL
LEUKOCYTE COUNT [1, 3]: 15.4 x10E3/uL
LYMPHOCYTE [1, 3]: 85%
MEAN CORPUSCULAR HEMOGLOBIN [1, 3]: 23.37 pg
MEAN CORPUSCULAR HEMOGLOBIN CONCENTRATION [1, 3]: 38.3 G/DL
NEUTROPHIL [1, 3]: 12%
NUCLEATED RED BLOOD CELLS [1, 3]: 0 /100WBC
PLATELET COUNT [1, 3]: 832.33 x10E3/uL
ALANINE AMINOTRANSFERASE [1, 4]: 37.33 u/L
ALBUMIN [1, 4]: 4 G/DL
ALKALINE PHOSPHATASE [1, 4]: 344.67 u/L
ASPARTATE AMINOTRANSFERASE [1, 4]: 69.33 u/L
BLOOD UREA NITROGEN [1, 4]: 13.67 mg/dL
CARBON DIOXIDE [1, 4]: 28.33 mmol/L
CHLORIDE [1, 4]: 99.67 MEQ/L
CHOLESTEROL [1, 4]: 73.67 mg/dL
CREATINE PHOSPHOKINASE [1, 4]: 270 u/L
CREATININE [1, 4]: 0.19 mg/dL
GLUCOSE [1, 4]: 176.33 mg/dL
LACTATE DEHYDROGENASE [1, 4]: 160 u/L
PHOSPHORUS [1, 4]: 13.47 mg/dL
POTASSIUM [1, 4]: 6.77 MEQ/L
TOTAL BILIRUBIN [1, 4]: 0.13 mg/dL
TOTAL PROTEIN [1, 4]: 6.07 G/DL
URIC ACID [1, 4]: 1.87 mg/dL
ABSOLUTE EOSINOPHIL [1, 5]: 57.67 CELLS/uL
ABSOLUTE LYMPHOCYTE [1, 5]: 13018 CELLS/uL
ABSOLUTE MONOCYTE [1, 5]: 366 CELLS/uL
ABSOLUTE SEGMENTED NEUTROPHIL [1, 5]: 1925 CELLS/uL
BASOPHIL [1, 5]: 0%
EOSINOPHIL [1, 5]: 0.33%
ERYTHROCYTE COUNT [1, 5]: 5.31 x10E6/uL
HEMATOCRIT [1, 5]: 32.37%
HEMOGLOBIN [1, 5]: 12.23 G/DL
LEUKOCYTE COUNT [1, 5]: 15.37 x10E3/uL
LYMPHOCYTE [1, 5]: 85%
MEAN CORPUSCULAR HEMOGLOBIN [1, 5]: 23.03 pg
MEAN CORPUSCULAR HEMOGLOBIN CONCENTRATION [1, 5]: 37.8 G/DL
MEAN CORPUSCULAR VOLUME [1, 5]: 60.97 fL
NEUTROPHIL [1, 5]: 12.33%
NUCLEATED RED BLOOD CELLS [1, 5]: 0.33 /100WBC
PLATELET COUNT [1, 5]: 1023.67 x10E3/uL
ALANINE AMINOTRANSFERASE [1, 6]: 40 u/L
ALKALINE PHOSPHATASE [1, 6]: 339.67 u/L
ASPARTATE AMINOTRANSFERASE [1, 6]: 85.67 u/L
BLOOD UREA NITROGEN [1, 6]: 13.67 mg/dL
CHOLESTEROL [1, 6]: 76.33 mg/dL
CREATINE PHOSPHOKINASE [1, 6]: 860.67 u/L
CREATININE [1, 6]: 0.21 mg/dL
GLUCOSE [1, 6]: 158.33 mg/dL
LACTATE DEHYDROGENASE [1, 6]: 124 u/L
PHOSPHORUS [1, 6]: 11.93 mg/dL
POTASSIUM [1, 6]: 6.39 MEQ/L
SODIUM [1, 6]: 145.63 MEQ/L
TOTAL BILIRUBIN [1, 6]: 0.2 mg/dL
TOTAL PROTEIN [1, 6]: 6 G/DL

COc1cc2ncnc(Nc3ccc(F)c(Cl)c3)c2cc1OCCCN1CCOCC1 [GEFITINIB]
HEMATOCRIT [2, 7]: 42.62%
HEMOGLOBIN [2, 7]: 13.07 G/DL
LEUKOCYTE COUNT [2, 7]: 13.95 x10E3/uL
MEAN CORPUSCULAR HEMOGLOBIN [2, 7]: 21.47 pg
MEAN CORPUSCULAR HEMOGLOBIN CONCENTRATION [2, 7]: 30.62 G/DL
MEAN CORPUSCULAR VOLUME [2, 7]: 70.05 fL
ALANINE AMINOTRANSFERASE [2, 7]: 47.67 u/L
ALBUMIN [2, 7]: 3.8 G/DL
ALKALINE PHOSPHATASE [2, 7]: 369 u/L
ASPARTATE AMINOTRANSFERASE [2, 7]: 86.17 u/L
BLOOD UREA NITROGEN [2, 7]: 16.33 mg/dL
CARBON DIOXIDE [2, 7]: 37.33 mmol/L
CHLORIDE [2, 7]: 104.83 MEQ/L
CHOLESTEROL [2, 7]: 79.83 mg/dL
CREATINE PHOSPHOKINASE [2, 7]: 392.83 u/L
CREATININE [2, 7]: 0.68 mg/dL
LACTATE DEHYDROGENASE [2, 7]: 426.17 u/L
LIPASE [2, 7]: 11.67 u/L
PHOSPHORUS [2, 7]: 11 mg/dL
TOTAL BILIRUBIN [2, 7]: 0.55 mg/dL
TOTAL PROTEIN [2, 7]: 6.32 G/DL
URIC ACID [2, 7]: 0.0167 mg/dL
HEMATOCRIT [2, 8]: 46.82%
HEMOGLOBIN [2, 8]: 14.23 G/DL
LEUKOCYTE COUNT [2, 8]: 13.43 x10E3/uL
MEAN CORPUSCULAR HEMOGLOBIN [2, 8]: 20.55 pg
MEAN CORPUSCULAR HEMOGLOBIN CONCENTRATION [2, 8]: 30.38 G/DL
MEAN CORPUSCULAR VOLUME [2, 8]: 67.62 fL
ALANINE AMINOTRANSFERASE [2, 8]: 44.67 u/L
ALBUMIN [2, 8]: 3.8 G/DL
ALKALINE PHOSPHATASE [2, 8]: 417.83 u/L
ASPARTATE AMINOTRANSFERASE [2, 8]: 83 u/L
BLOOD UREA NITROGEN [2, 8]: 15.33 mg/dL
CARBON DIOXIDE [2, 8]: 38.83 mmol/L
CHLORIDE [2, 8]: 98.17 MEQ/L
CHOLESTEROL [2, 8]: 66.83 mg/dL
CREATINE PHOSPHOKINASE [2, 8]: 383.17 u/L
CREATININE [2, 8]: 0.72 mg/dL
LACTATE DEHYDROGENASE [2, 8]: 519.67 u/L
LIPASE [2, 8]: 4.83 u/L
PHOSPHORUS [2, 8]: 11.07 mg/dL
TOTAL BILIRUBIN [2, 8]: 0.55 mg/dL
TOTAL PROTEIN [2, 8]: 6.3 G/DL
URIC ACID [2, 8]: 0.0833 mg/dL
HEMATOCRIT [2, 9]: 45.2%
HEMOGLOBIN [2, 9]: 13.93 G/DL
LEUKOCYTE COUNT [2, 9]: 13.22 x10E3/uL
MEAN CORPUSCULAR HEMOGLOBIN [2, 9]: 21.17 pg
MEAN CORPUSCULAR HEMOGLOBIN CONCENTRATION [2, 9]: 30.87 G/DL
MEAN CORPUSCULAR VOLUME [2, 9]: 68.57 fL
ALANINE AMINOTRANSFERASE [2, 9]: 47.67 u/L
ALBUMIN [2, 9]: 3.63 G/DL
ALKALINE PHOSPHATASE [2, 9]: 348 u/L
ASPARTATE AMINOTRANSFERASE [2, 9]: 93.67 u/L
BLOOD UREA NITROGEN [2, 9]: 18 mg/dL
CARBON DIOXIDE [2, 9]: 36.33 mmol/L
CHLORIDE [2, 9]: 108 MEQ/L
CHOLESTEROL [2, 9]: 79.67 mg/dL
CREATINE PHOSPHOKINASE [2, 9]: 307.67 u/L
CREATININE [2, 9]: 0.7 mg/dL
LACTATE DEHYDROGENASE [2, 9]: 373.67 u/L
LIPASE [2, 9]: 10.67 u/L
PHOSPHORUS [2, 9]: 10.37 mg/dL
TOTAL BILIRUBIN [2, 9]: 0.37 mg/dL
TOTAL PROTEIN [2, 9]: 5.97 G/DL
URIC ACID [2, 9]: 0 mg/dL
HEMATOCRIT [2, 10]: 46.33%
HEMOGLOBIN [2, 10]: 14.27 G/DL
LEUKOCYTE COUNT [2, 10]: 14.5 x10E3/uL
MEAN CORPUSCULAR HEMOGLOBIN [2, 10]: 20.73 pg
MEAN CORPUSCULAR HEMOGLOBIN CONCENTRATION [2, 10]: 30.83 G/DL
MEAN CORPUSCULAR VOLUME [2, 10]: 67.23 fL
ALANINE AMINOTRANSFERASE [2, 10]: 52.67 u/L
ALBUMIN [2, 10]: 3.6 G/DL
ALKALINE PHOSPHATASE [2, 10]: 361.67 u/L
ASPARTATE AMINOTRANSFERASE [2, 10]: 94 u/L
BLOOD UREA NITROGEN [2, 10]: 17.33 mg/dL
CARBON DIOXIDE [2, 10]: 35.67 mmol/L
CHLORIDE [2, 10]: 100.33 MEQ/L
CHOLESTEROL [2, 10]: 85.33 mg/dL
CREATINE PHOSPHOKINASE [2, 10]: 299.67 u/L
CREATININE [2, 10]: 0.7 mg/dL
LACTATE DEHYDROGENASE [2, 10]: 423.67 u/L
LIPASE [2, 10]: 5.33 u/L
PHOSPHORUS [2, 10]: 11.87 mg/dL
TOTAL BILIRUBIN [2, 10]: 0.4 mg/dL
TOTAL PROTEIN [2, 10]: 6.07 G/DL
URIC ACID [2, 10]: 0.0333 mg/dL
